# The source made the active and inactive calls.
# What was measured:
# [1] = biological target: Benomyl/methotrexate resistance protein (Candida albicans, UniProt P28873); assay: CaMdr1 efflux pump inhibitor potency, dose response, singleplex, Cherry Pick2 set (AID 623992); format: functional; settings: read-out: EC50_MICROM
# [2] = A Cell Based Secondary Assay to Explore Cytotoxicity in THP-1 Cells of Compounds that Modulate Mycobacterium tuberculosis in Media Containing Glycerol versus Media without Glycerol (2).; format: functional
# [3] = microbe, parasite or virus in culture; format: functional; settings: Mycobacterium tuberculosis
# [4] = Vero cell cytotoxicity, cytotoxicity control for M. tuberculosis inhibitor project, purified and synthesized samples, set 3 (AID 504684); format: functional
# [5] = A Cell Based Secondary Assay to Explore Cytotoxicity in HepG2 Cells of Compounds that Modulate Mycobacterium tuberculosis in Media Containing Glycerol versus Media without Glycerol (2).; format: functional
# [6] = HIV-1 Env-mediated cell fusion inhibitors, dose response, CCR5-tropic Env (AID 2279); format: functional
# [7] = nonselective inhibitors of cellular cAMP signaling, dose response, counter-screen for MC4R biased antagonist project, cell-based, TR-FRET cAMP detection (AID 602305); format: functional;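 also: U2OS cells stimulated with forskolin near its EC80 as the cAMP inducer; potency is for inhibition of forskolin-stimulated cAMP signaling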
# Melanocortin receptor 4 = Melanocortin receptor 4 (Homo sapiens, UniProt P32245); assay: MC4R antagonist potency on cAMP, dose response, cell-based, TR-FRET, biased antagonists (AID 602298); format: functional;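 also: antagonist potency against agonist-stimulated cAMP production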
# Sequence of Melanocortin receptor 4 (P32245 whole entry): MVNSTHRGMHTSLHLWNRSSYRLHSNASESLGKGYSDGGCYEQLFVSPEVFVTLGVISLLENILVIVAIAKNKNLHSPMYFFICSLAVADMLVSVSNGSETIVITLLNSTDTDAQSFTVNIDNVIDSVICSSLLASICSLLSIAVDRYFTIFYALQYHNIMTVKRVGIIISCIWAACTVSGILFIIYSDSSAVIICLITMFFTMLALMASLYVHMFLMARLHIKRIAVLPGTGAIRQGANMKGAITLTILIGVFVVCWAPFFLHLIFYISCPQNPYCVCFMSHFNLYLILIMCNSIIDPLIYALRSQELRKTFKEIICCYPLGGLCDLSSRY
# [8] = cytotoxicity in HEK-293T cells, dose response, cytotoxicity control for BCR NF-kB inhibitor project, luminescence, B-cell screen hits (AID 489021); format: functional, cell-based;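 also: HEK-293T cells carrying an NF-kB luciferase reporter; cells exposed to compound for about 14 hours before viability readout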
# [9] = biological target: T1, Sentrin-specific protease 6 (Homo sapiens, UniProt Q9GZR1); assay: SAR Analysis of small molecule inhibitors of Sentrin-specific protease 6 (SENP6) using a Luminescent assay. [Related pubchem assays (depositor defined):AID2582, AID2599]; format: functional
# T1 sequence (Q9GZR1 whole entry): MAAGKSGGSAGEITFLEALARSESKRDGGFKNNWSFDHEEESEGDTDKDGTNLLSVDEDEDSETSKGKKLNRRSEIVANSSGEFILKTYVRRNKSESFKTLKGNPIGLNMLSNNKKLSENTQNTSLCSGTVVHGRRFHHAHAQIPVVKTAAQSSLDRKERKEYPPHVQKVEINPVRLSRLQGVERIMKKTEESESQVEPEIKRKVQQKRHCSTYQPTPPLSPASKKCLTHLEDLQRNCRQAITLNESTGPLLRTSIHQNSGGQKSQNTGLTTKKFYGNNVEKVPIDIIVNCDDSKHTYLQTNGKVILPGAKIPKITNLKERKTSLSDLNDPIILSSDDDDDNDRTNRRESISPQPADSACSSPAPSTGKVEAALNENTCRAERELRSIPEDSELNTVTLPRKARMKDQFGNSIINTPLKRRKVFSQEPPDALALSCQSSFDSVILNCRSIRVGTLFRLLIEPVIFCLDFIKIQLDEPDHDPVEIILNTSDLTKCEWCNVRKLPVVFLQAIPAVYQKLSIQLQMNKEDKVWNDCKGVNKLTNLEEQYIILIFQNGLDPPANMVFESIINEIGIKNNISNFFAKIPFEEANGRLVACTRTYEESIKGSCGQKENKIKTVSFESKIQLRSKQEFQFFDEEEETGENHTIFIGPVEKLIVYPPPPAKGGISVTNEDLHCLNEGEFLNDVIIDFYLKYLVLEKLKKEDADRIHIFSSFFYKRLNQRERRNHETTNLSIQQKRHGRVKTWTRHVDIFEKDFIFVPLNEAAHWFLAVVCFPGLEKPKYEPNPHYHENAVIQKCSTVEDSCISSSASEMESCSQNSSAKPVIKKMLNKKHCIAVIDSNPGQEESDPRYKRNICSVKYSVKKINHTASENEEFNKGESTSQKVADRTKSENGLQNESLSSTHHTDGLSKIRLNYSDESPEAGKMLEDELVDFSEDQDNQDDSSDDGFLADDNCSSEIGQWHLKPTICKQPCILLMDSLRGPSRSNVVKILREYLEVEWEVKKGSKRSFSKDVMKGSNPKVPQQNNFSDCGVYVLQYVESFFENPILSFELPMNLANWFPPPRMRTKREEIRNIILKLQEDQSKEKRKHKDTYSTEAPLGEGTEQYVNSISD
# [10] = biological target: T2, Sentrin-specific protease 7 (Homo sapiens, UniProt Q9BQF6); assay: SENP7 protease inhibitors, SAR follow-up, biochemical, luminescence (AID 504497); format: functional
# T2 sequence (Q9BQF6 whole entry): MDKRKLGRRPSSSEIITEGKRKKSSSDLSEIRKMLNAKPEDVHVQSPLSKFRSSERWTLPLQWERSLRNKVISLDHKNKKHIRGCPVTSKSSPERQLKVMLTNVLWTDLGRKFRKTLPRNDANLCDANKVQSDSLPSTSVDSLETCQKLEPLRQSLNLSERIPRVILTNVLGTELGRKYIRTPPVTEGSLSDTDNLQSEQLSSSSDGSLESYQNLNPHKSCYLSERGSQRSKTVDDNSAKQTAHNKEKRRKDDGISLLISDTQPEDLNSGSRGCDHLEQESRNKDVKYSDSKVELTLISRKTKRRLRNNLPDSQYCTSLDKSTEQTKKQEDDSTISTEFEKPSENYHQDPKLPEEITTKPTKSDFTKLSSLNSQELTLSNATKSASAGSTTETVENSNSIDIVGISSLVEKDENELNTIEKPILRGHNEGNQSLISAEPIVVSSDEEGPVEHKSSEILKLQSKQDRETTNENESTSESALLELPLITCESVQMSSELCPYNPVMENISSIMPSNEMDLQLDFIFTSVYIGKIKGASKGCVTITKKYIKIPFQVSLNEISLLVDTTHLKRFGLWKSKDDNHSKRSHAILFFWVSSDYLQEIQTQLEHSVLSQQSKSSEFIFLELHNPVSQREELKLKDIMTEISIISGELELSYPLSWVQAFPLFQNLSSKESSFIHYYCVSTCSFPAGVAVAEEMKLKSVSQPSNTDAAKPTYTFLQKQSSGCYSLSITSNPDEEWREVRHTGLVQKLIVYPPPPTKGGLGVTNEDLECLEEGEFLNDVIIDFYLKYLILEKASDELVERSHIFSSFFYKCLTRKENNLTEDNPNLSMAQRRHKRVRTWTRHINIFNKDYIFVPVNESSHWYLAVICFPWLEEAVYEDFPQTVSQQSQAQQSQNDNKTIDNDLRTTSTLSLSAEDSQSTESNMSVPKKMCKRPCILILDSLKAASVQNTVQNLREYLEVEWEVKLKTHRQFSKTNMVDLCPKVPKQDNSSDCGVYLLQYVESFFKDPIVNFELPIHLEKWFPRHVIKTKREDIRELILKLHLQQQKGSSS
# [11] = biological target: T3, Sentrin-specific protease 8 (Homo sapiens, UniProt Q96LD8); assay: SENP8 protease inhibitors, SAR follow-up, biochemical, luminescence (AID 504501); format: functional
# T3 sequence (Q96LD8 whole entry): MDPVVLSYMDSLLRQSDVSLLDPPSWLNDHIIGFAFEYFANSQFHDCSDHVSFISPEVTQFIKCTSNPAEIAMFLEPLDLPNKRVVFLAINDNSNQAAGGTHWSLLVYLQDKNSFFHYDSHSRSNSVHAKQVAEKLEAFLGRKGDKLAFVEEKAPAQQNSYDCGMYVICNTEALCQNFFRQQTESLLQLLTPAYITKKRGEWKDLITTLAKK
# Caspase-3 = biological target: T4, Caspase-3 (Homo sapiens, UniProt P42574); assay: SAR Analysis of small molecule inhibitors of Sentrin-specific proteases (SENPs) using a Caspase-3 Selectivity assay. [Related pubchem assays (depositor defined):AID2540, AID2599, AID434973, AID489001]; format: functional
# T4 sequence (P42574 whole entry): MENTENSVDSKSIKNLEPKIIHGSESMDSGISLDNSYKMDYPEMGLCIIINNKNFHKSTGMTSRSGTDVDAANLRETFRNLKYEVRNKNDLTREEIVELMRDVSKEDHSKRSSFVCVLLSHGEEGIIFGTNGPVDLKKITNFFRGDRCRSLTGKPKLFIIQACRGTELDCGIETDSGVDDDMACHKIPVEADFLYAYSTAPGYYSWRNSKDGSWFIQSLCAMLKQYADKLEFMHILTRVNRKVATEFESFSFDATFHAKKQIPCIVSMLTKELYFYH
# [12] = biological target: T5, Melanin-concentrating hormone receptor 1 (Homo sapiens, UniProt Q99705); assay: Late-stage fluorescence-based counterscreen for antagonists of the G-protein coupled receptor 7 (GPR7): cell-based dose response assay to identify antagonists of the melanin-concentrating hormone receptor 1 (MCHR1) Set 5.; format: functional
# T5 sequence (Q99705 whole entry): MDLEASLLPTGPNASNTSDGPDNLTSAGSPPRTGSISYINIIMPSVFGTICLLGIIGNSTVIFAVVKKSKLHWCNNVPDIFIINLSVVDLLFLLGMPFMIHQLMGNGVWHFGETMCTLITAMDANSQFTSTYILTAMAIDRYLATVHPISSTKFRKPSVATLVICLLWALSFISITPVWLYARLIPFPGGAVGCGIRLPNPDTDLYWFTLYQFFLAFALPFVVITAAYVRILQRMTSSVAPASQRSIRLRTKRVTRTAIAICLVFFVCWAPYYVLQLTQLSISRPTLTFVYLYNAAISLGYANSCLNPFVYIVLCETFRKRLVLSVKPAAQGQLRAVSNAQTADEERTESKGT
# [13] = biological target: T6, Neuropeptides B/W receptor type 1 (Homo sapiens, UniProt P48145); assay: GPR7 antagonist potency, late-stage follow-up, cell-based, fluorescence, dose response, set 5 (AID 588566); format: functional
# T6 sequence (P48145 whole entry): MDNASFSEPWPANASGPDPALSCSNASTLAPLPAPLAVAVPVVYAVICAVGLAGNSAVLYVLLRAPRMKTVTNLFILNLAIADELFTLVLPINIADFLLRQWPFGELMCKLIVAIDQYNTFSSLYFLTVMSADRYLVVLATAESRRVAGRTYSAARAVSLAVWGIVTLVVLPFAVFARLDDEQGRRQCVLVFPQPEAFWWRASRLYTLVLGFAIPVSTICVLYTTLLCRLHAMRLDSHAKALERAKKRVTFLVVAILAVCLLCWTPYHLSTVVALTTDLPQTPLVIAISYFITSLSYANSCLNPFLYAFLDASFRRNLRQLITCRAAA
# [14] = biological target: DNA dC->dU-editing enzyme APOBEC-3G (Homo sapiens, UniProt Q9HC16); assay: APOBEC3G deaminase inhibitors, SAR follow-up, biochemical, fluorescence, single-stranded DNA substrate (AID 602136); format: functional; settings: read-out: IC50_Mean
# [15] = biological target: DNA dC->dU-editing enzyme APOBEC-3A (Homo sapiens, UniProt P31941); assay: SAR analysis of small molecule inhibitors of APOBEC3A DNA Deaminase via a fluorescence-based single-stranded DNA deaminase assay.; format: functional; settings: read-out: IC50_Mean
# Sequence of DNA dC->dU-editing enzyme APOBEC-3A (P31941 whole entry): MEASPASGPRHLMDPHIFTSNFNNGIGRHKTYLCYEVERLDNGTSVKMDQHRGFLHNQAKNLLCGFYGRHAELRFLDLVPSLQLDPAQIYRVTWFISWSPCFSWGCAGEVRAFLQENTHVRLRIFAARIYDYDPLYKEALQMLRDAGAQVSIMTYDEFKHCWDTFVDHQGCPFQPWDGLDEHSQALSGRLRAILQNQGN
# [16] = biological target: T5, Melanin-concentrating hormone receptor 1; assay: Late-stage fluorescence-based counterscreen for antagonists of the G-protein coupled receptor 7 (GPR7): cell-based dose response assay to identify antagonists of the melanin-concentrating hormone receptor 1 (MCHR1) Set 6.; format: functional
# [17] = biological target: T6, Neuropeptides B/W receptor type 1; assay: GPR7 antagonist potency, late-stage follow-up, cell-based, fluorescence, dose response, set 6 (AID 588583); format: functional
# [18] = biological target: Fibroblast growth factor receptor 3 (Homo sapiens, UniProt P22607); format: functional
# [19] = biological target: Tyrosine-protein kinase SYK (Homo sapiens, UniProt P43405); format: functional
# [20] = biological target: Insulin-like growth factor 1 receptor (Homo sapiens, UniProt P08069); assay: Navigating the Kinome. Panel member name: IGF1R; format: functional
# Focal adhesion kinase 1 = Focal adhesion kinase 1 (Homo sapiens, UniProt Q05397); format: functional;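 also: measured as one member of a kinome panel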
# Sequence of Focal adhesion kinase 1 (Q05397 whole entry): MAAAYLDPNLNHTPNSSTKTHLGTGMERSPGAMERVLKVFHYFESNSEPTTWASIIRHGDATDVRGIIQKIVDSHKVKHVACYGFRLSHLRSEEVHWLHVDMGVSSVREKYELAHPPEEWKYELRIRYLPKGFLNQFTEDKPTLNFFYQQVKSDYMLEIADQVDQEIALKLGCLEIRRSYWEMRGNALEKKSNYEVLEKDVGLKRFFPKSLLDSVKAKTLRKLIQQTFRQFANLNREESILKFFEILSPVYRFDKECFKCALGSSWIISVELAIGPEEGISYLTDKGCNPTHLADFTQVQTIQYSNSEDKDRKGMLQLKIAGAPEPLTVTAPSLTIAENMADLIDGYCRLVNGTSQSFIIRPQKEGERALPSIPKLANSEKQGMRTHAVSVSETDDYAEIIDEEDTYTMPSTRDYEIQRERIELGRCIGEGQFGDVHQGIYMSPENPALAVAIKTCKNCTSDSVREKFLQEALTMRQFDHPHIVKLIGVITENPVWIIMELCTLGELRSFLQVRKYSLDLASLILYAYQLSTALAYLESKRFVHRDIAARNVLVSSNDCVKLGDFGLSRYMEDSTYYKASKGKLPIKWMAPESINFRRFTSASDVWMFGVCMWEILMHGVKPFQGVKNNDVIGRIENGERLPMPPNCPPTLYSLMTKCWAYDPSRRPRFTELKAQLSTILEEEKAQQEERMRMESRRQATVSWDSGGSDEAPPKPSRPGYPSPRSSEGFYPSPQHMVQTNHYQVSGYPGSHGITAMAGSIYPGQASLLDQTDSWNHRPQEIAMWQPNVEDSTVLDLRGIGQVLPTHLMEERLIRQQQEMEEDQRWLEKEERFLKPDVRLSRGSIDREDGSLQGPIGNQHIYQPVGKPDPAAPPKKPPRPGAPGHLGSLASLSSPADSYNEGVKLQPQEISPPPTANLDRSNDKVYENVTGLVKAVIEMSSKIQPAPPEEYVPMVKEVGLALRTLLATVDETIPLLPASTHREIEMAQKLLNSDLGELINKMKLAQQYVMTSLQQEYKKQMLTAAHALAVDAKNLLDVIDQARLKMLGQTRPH
# [21] = biological target: Hepatocyte growth factor receptor (Homo sapiens, UniProt P08581); format: functional;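 also: kinase panel profiling across the kinome, with MET as the panel member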
# [22] = biological target: Tyrosine-protein kinase ABL1 (Homo sapiens, UniProt P00519); format: functional
# [23] = biological target: Leucine-rich repeat serine/threonine-protein kinase 2 (Homo sapiens, UniProt Q5S007); format: functional;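 also: value from a broad kinome-wide panel profiling study in which LRRK2 was one of the kinases tested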
# [24] = biological target: cAMP-dependent protein kinase catalytic subunit alpha (Homo sapiens, UniProt P17612); format: functional
# [25] = biological target: Cell division cycle 7-related protein kinase (Homo sapiens, UniProt O00311); format: functional;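 also: value obtained from a kinome-wide kinase panel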
# Sequence of Cell division cycle 7-related protein kinase (O00311 whole entry): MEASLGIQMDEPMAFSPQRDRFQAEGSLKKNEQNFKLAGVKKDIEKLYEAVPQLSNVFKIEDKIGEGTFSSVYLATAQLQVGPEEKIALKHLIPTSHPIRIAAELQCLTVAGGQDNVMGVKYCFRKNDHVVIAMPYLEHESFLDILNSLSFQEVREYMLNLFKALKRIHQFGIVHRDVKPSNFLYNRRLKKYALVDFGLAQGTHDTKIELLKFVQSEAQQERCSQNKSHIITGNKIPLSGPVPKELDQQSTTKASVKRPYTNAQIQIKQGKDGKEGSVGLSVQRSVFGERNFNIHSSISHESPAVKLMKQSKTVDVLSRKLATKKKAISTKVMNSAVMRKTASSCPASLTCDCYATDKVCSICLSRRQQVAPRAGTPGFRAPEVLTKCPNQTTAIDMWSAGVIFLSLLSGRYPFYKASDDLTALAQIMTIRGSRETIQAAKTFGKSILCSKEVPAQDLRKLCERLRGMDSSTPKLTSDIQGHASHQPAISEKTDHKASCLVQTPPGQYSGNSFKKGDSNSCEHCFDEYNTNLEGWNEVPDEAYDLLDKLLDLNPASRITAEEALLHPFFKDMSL
# [26] = biological target: Serine/threonine-protein kinase pim-1 (Homo sapiens, UniProt P11309); format: functional
# Sequence of Serine/threonine-protein kinase pim-1 (P11309 whole entry): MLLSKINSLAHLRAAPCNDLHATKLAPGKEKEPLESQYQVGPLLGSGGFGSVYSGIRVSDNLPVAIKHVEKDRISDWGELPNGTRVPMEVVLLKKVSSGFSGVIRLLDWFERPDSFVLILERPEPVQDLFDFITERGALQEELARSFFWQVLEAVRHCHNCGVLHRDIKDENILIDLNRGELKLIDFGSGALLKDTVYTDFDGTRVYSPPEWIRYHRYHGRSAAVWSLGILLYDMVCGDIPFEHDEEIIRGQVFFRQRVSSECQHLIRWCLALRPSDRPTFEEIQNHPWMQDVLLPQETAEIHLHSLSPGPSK
# [27] = biological target: Dual specificity protein kinase CLK4 (Homo sapiens, UniProt Q9HAZ1); format: functional
# [28] = biological target: Glycogen synthase kinase-3 beta (Homo sapiens, UniProt P49841); format: functional;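 also: value comes from a broad kinome profiling panel, with GSK3B as the panel member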
# [29] = biological target: Mitogen-activated protein kinase kinase kinase kinase 4 (Homo sapiens, UniProt O95819); format: functional
# Sequence of Mitogen-activated protein kinase kinase kinase kinase 4 (O95819 whole entry): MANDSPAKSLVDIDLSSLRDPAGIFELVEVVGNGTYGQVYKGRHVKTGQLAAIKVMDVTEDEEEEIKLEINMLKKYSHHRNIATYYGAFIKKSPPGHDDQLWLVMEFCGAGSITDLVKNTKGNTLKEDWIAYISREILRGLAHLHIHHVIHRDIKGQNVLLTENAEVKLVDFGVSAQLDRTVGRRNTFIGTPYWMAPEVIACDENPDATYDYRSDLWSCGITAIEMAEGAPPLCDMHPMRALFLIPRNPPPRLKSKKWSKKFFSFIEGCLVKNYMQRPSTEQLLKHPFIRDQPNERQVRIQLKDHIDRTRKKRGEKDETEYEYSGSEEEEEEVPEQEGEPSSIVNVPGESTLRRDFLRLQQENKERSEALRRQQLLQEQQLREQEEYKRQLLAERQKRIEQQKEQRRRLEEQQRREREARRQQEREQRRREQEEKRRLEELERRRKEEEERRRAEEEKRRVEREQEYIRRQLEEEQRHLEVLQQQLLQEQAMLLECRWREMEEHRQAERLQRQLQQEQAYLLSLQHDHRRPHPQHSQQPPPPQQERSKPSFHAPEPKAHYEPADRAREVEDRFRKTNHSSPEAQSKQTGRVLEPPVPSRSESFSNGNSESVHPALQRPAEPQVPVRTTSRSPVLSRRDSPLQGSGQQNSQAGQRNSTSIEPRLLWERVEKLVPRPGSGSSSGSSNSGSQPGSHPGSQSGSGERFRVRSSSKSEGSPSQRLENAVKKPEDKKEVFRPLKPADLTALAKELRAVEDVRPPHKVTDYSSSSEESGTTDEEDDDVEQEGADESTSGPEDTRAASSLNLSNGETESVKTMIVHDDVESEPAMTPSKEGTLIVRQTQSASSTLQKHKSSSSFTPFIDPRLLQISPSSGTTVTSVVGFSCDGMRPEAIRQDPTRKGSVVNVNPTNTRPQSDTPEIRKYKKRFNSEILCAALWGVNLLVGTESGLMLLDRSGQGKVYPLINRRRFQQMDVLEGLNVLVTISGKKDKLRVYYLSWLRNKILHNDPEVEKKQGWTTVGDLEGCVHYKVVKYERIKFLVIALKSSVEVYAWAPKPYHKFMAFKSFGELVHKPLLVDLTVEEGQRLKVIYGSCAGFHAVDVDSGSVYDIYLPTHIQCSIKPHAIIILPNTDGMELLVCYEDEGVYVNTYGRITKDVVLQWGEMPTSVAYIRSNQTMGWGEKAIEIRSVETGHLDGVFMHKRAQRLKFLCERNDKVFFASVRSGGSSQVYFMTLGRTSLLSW
# [30] = biological target: Interleukin-1 receptor-associated kinase 4 (Homo sapiens, UniProt Q9NWZ3); format: functional
# [31] = biological target: Homeodomain-interacting protein kinase 2 (Homo sapiens, UniProt Q9H2X6); format: functional;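 also: measured within a kinome-wide kinase profiling panel, HIPK2 being one panel member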
# [32] = biological target: Cyclin-dependent kinase 2 (Homo sapiens, UniProt P24941); format: functional;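 also: CDK2 measured as one member of a broad kinome profiling panel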
# [33] = biological target: Protein kinase C delta type (Homo sapiens, UniProt Q05655); format: functional
# Misshapen-like kinase 1 = Misshapen-like kinase 1 (Homo sapiens, UniProt Q8N4C8); format: functional;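 also: kinome panel screen with MINK as the panel member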
# Sequence of Benomyl/methotrexate resistance protein (P28873 whole entry): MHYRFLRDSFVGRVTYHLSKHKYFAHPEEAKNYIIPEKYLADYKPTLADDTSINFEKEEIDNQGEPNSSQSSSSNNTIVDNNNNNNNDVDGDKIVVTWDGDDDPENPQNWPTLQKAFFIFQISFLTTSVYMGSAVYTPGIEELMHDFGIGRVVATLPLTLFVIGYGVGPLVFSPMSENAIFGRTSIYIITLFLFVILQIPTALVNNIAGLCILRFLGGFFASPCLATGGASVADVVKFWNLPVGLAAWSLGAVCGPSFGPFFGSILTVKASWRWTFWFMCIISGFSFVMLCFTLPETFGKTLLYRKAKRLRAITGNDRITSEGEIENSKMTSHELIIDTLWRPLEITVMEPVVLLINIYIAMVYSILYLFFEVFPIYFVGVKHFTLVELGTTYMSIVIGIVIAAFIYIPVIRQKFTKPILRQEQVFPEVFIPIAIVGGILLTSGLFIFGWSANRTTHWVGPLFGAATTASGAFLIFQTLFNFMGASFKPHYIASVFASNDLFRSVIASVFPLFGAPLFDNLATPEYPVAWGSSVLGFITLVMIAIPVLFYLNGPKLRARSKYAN
smiles,measurement,setting,value
O=C(c1ccc2c(c1)OCO2)N1CCC2(CC1)Oc1ccc(F)cc1C(=O)C21CC(c2ccccc2)=NO1 (stereo not drawn),EC50,[1],9.25 µM (active)
CC(C)NC(=O)c1sc(=S)n2c1[nH]c(=O)c1ccc(C(=O)NCCc3ccc(Cl)cc3)cc12,CC50,[2],> 100 µM (active)
same,CC50,[3],> 40 µM (active)
same,CC50,[4],> 100 µM (active)
same,CC50,[5],> 50 µM (active)
same,IC50,[6],41.5 µM (active)
O=C1NC[C@H](c2ccccc2)OC(=O)[C@@H](Cc2ccc(F)cc2)C/C=C\C[C@H]1CC(=O)N(CCO)Cc1ccccc1,IC50,[7],> 64.6 µM (inactive)
same,IC50,Melanocortin receptor 4,> 64.6 µM (inactive)
same,IC50,[8],30.3 µM (inactive)
Clc1ccc(N/N=C/c2c[nH]c3ccccc23)cc1,IC50,[9],> 99 µM (inactive)
same,IC50,[10],57 µM (active)
same,IC50,[11],> 99 µM (inactive)
same,IC50,Caspase-3,> 99 µM (inactive)
COc1c(F)cc(Oc2c(Cl)cnn(Cc3cccc4ccccc34)c2=O)cc1F,IC50,[12],7.43 µM (active)
same,IC50,[13],2.2 µM (active)
Cc1ccc(NC(=O)CCSc2nnc3scc(-c4ccccc4)n23)cc1,IC50,[14],> 99 µM (inactive)
same,IC50,[15],> 99 µM (inactive)
N#CC(c1c(F)cccc1F)c1c(Cl)cnn(Cc2cccc3ccccc23)c1=O (stereo not drawn),IC50,[16],1.61 µM (active)
same,IC50,[17],1.61 µM (active)
c1ccc(CNc2nc(Nc3cc(C4CC4)[nH]n3)c3sccc3n2)cc1,Ki,[18],0.00316 µM (active)
same,Ki,[19],0.0126 µM (active)
same,Ki,[20],0.0794 µM (active)
same,Ki,Focal adhesion kinase 1,0.00501 µM (active)
same,Ki,[21],0.794 µM (active)
same,Ki,[22],0.01 µM (active)
same,Ki,[23],0.01 µM (active)
O=c1cc(-c2ccc(F)cc2)[nH]c2c(-c3ccc(F)cc3)cnn12,Ki,[24],> 7.94 µM (inactive)
same,Ki,[25],0.0501 µM (active)
same,Ki,[26],0.0501 µM (active)
same,Ki,[27],0.158 µM (active)
same,Ki,[28],0.501 µM (active)
same,Ki,[29],> 10 µM (inactive)
same,Ki,[30],> 10 µM (inactive)
same,Ki,[31],0.2 µM (active)
same,Ki,[32],> 7.94 µM (inactive)
CC(C)Oc1ccc(-c2noc(-c3ccc(OCC(O)CO)cc3)n2)cc1Cl (stereo not drawn),Ki,[33],7.94 µM (active)
same,Ki,Misshapen-like kinase 1,6.31 µM (active)
same,Ki,[29],2 µM (active)

# Source: ChEMBL document CHEMBL1201862, “PubChem BioAssay data set” (2004)
